Data published in article PMC2771923 (Journal of medicinal chemistry, 2008).

Columns and labels:
[1] = biological target: PRWT (optimized wild-type HIV-1 PR) (Human immunodeficiency virus type 1 group M subtype B, UniProt P04585, C555A/C583A/L521I/L551I/Q495K)
[2] = biological target: PRV32I (V32I mutant HIV-1 PR) (Human immunodeficiency virus type 1 group M subtype B, UniProt P04585, C555A/C583A/L521I/L551I/Q495K/V520I)
[3] = test system: PR dimers; conditions: fluorescent-tagged PR monomers; cited from earlier work
[4] = biological target: HIV-1 PR (Human immunodeficiency virus type 1 group M subtype B, UniProt P04585); conditions: cited from earlier work

Compound	γ (factor of γKi) [1]	δ (factor of δKi) [1]	Ki^uncomp (uncompetitive inhibition constant) ([1]; from intercept replots of Lineweaver-Burk plots)	γKi smaller compared to Ki^uncomp ([1]; ratio Ki^uncomp / γKi)	γ (factor of γKi) [2]	δ (factor of δKi) [2]	inhibition of the formation of PR dimers [3]	affinity for HIV-1 PR [4]	dissociation rate [4]	type of inhibition [1]	type of inhibition [2]
CC(C)CN(C[C@@H](O)[C@H](Cc1ccccc1)NC(=O)O[C@H]1CCOC1)S(=O)(=O)c1ccc(N)cc1 [APV, amprenavir]	0.22	0.23	28 nM	4.5 fold	0.45	0.28	absence of APV inhibition				
CC(C)CN(C[C@@H](O)[C@H](Cc1ccccc1)NC(=O)O[C@H]1CO[C@H]2OCC[C@H]21)S(=O)(=O)c1ccc(N)cc1 [DRV, darunavir]	1.2	0.5			1.7	0.3	inhibited the formation of PR dimers	exceptionally high affinity	greatly decreased dissociation rate		
CC(C)(C)NC(=O)[C@@H]1C[C@@H]2CCCC[C@@H]2CN1C[C@@H](O)[C@H](Cc1ccccc1)NC(=O)[C@H](CC(N)=O)NC(=O)c1ccc2ccccc2n1 [SQV, saquinavir]										purely competitive inhibition	purely competitive inhibition
